Reference: patent EP0170926B1, “Eburnanecarboxylic acid derivatives having an amino group in position 9 or 11, the amino group eventually being substituted, process for their preparation, and medicaments containing these compounds” (priority 1984, dated 1986)
In brackets after ≈: the same amount, converted by molar mass. Structures can show the parent of a compound that is named as a salt. Where two headings read alike, the source gives them in different places.

Columns and labels:
[1] = Antihypoxic effect, investigations without described method; conditions: in vivo
[2] = Vasodilating effect, tests without described method; conditions: in vivo
Tiere [3] = experiment: Antihypoxic effect: asphyxic anoxia; format: in vivo; conditions: po, 1 h; p.o., one hour before test; protected = survival 30 % longer than control; read-out: ED50 Asphyxische Anoxie
Description: Die antihypoxische Wirkung wurde ferner hoch an asphyxischer Anoxie (Caillard C. et al.: Life Sci. 16, 1607 /1975/) und an hypobarer Hypoxie (Baumel J. et al: Proc. Soc. Biol. N.Y. 132, 629 /1969/) gemessen. Dabei wurden die Tiere 16 Stunden lang ausgehungert, dann p.o. behandelt und eine Stunde später in gut schließende Glasgefäße von 100 ml Volumen gesetzt. Als Überiebenszeit wurde die Zeit vom Verschließen des Gefäßes bis zur letzten Atembewegung registriert. Als erfolgreich behandelt können diejenigen Tiere gelten, die eine um 30 % längere Zeit an Leben blieben als der Durchschnitt der Kontrollgruppe.

[4] = system: isolierten Meerschweinchenileum; experiment: Spasmolytic activity: inhibition of barium chloride-induced contraction of isolated guinea pig ileum; design: species or system Meerschweinchen; conditions: Cavia porcellus
Text: Die spasmolytische Aktivität der Verbindungen wurde am isolierten Meerschweinchendarm auf klassische Weise bestimmt (Magnus, R., Pflügers Arch., 102; 123/1904/). Als Referenzsubstanz wurden das bekannte Spasmolytikum Papaverin, ferner (+)-Apovincaminsäureäthylester verwendet. Die Ergebnisse sind in der Tabelle II zusammengefaßt.

Tiere [5] = experiment: Antihypoxic effect: hypobaric hypoxia; format: in vivo; conditions: po, 1 h; p.o., one hour before test; 221 mbar; protected = survival 100 % longer than control; probit analysis; read-out: ED50 Hypobare Hypoxie
Text: Die Wirkung auf die hypobare Hypoxie wurde an 16 Stunden lang ausgehungerten Tieren untersucht, die eine Stunde vor Versuchsbeginn p.o. mit den Verbindungen behandelt wurden. Die Tiere wurden In einen Vakuumexsikkator gesetzt, und der Druck wurde innerhalb von 20 Sekunden auf 221 mbar [170 Torr] gesenkt. Von diesem Zeitpunkt an wurde als Überlebensdauer die Zeit bis zur letzten Atembewegung gemessen. Als erfolgreich behandelt wurden diejenigen Tiere betrachtet, deren Überlebensdauer um 100 % länger war als die durchschnittliche Übedebensdauer der Kontrolle. Aus dem prozentualen Anteil der geschützten Tiere wurden mittels Probit-Analyse die ED50-Werte berechnet.

[6] = system: nicht narkotisierter Mäuse; experiment: Antihypoxic effect: normobaric hypoxia in non-anaesthetised mice; format: in vivo; conditions: for Überlebensdauer (min): 50 mg/kg intraperitoneal 30 min before test, 96 % nitrogen, 4 % oxygen, mean ± spread; for Überlebensdauer (%) Verlängerung: prolongation versus control
Text: Die antihypoxische Wirkung wurde an nicht narkotisierten Mäusen in normobarer Hypoxie bestimmt. Fünf männliche Mäuse wurden in einen Glaszylinder von 3 Liter Volumen gesetzt, und in den Zylinder wurde ein aus 96 % Stickstoff und 4 % Sauerstoff bestehendes Gasgemisch eingeleitet. Gemessen wurde die Zeit zwischen dem Einbringen der Tiere in den Zylinder und ihrem Verenden. Diejenigen Tiere, die die unbehandelte Kontrolle um mehr als die doppelte Zeitspanne überlebten, können als erfolgreich behandelt gelten. Die zu untersuchenden Substanzen wurden je 10 Tieren in einer Dosis von 50 mg/kg Intraperitoneal 30 Minuten vor Versuchsbeginn verabreicht.

[7] = system: Kreislauf narkotisierter Hunde; experiment: Vasodilating effect: blood flow in anaesthetised dogs (electromagnetic flow meter); format: in vivo; conditions: Canis lupus familiaris, 1 mg/kg intravenous, six dogs
Description: Die gefäßerweiternde Wirkung wurde an mit "Chloralose-Pentobarbital"-Gemisch narkotisierten Hunden untersucht. Die Durchblutung der Extremitäten wurde an der Arteria femoralis gemessen, über die Durchblutung des Gehirns ergaben Messungen an der Arteria carotis interna Aufschluß. Zu den Messungen wurden elektromagnetische Strömungsmesser verwendet. Die zu untersuchenden Substanzen wurden in einer Dosis von 1 mg/kg Körpergewicht sechs Hunden appliziert, und die in den gemessenen Parametern eintretenden Veränderungen wurden in Prozent umgerechnet. Als Referenzsubstanz diente der in der Medizin als gefäßerweiternde Substanz allgemein angewendete (+)-Apovincamlnsäureäthylester. Die Ergebnisse sind In der Tabelle I zusammengefaßt.

Mäusen [8] = experiment: Anticonvulsive effect: metrazole (pentylenetetrazole) convulsion in mice; format: in vivo; conditions: Mus musculus, po; 125 mg/kg pentylenetetrazole subcutaneous; read-out: ED50 Metrazolkrampf
Description: Die Tiere erhielten nach der Vorbehandlung subkutan 125 mglkg Pentylentetrazol. Registriert wurde das Ausbleiben des persistierenden clonischen Krampfes und des tonischen Extensorkrampfes.

Mäusen [9] = experiment: Anticonvulsive effect: maximal electroshock in mice; format: in vivo; conditions: Mus musculus, po; 20 mA, 0,2 s, corneal electrode; read-out: ED50 max. Elektroschock
Description: Der Schock wurde an 22 - 24 g schweren Tieren durch eine corneale Elektrode ausgelöst (20 mA, 0,2 s, HSE-Schockgerät Typ 207). Als geschützt wurden diejenigen Tiere betrachtet, bei denen durch die Behandlung die tonische Extension der hinteren Gliedmaßen ausblieb.

in vivo [10] = experiment: in vivo; design: species or system Mäuse; conditions: mouse, po
Text: Muskelrelaxierende Wirkung (Traction).

in vivo [11] = conditions: for TD50: po
Description: Messung der Muskelinkoordination (Rotarod) (H. Kwibara et al.: Japan J. Pharmacol. 27, 117 /1977/). Nach vorherigem Training wurden Tiere ausgewählt die im Stande sind, 120 Sekunden lang auf dem horizontalen Stab (Durchmesser 20 mm, Drehzahl 12 min^-1) oben zu bleiben. Als Muskelinkoordination wurde gewertet, wenn die Tiere innerhalb der Limitzeit herabfielen.

[12] = inhibition of barium chloride-induced contraction, read-out: ED50 (the source's name)
[13] = blood flow of Arteria carotis interna (brain), read-out: A. carotis (Veränderungen in Prozent)
[14] = blood flow of Arteria femoralis (extremities), read-out: A. femoralis (Veränderungen in Prozent)

**Q.** With CCC12C=C(C(=O)OC)n3c4c(c5c([N+](=O)[O-])cccc53)CCN(CCC1)C42 (centres unmarked) [9-Nitro-apovincamin] as the compound, how does the “antihypoxische Wirkung” value [1] read?
**A.** keine antihypoxische Wirkung

**Q.** For CCC12CCCN3CCc4c(n(c5cccc([N+](=O)[O-])c45)C(O)(C(=O)OC)C1)C32 (centres unmarked) [9-Nitro-vincamin], which “gefäßerweiternde Wirkung” value [2] is on record?
**A.** keine gefäßerweiternde Wirkung

**Q.** Which ED50 (Tiere [3]) does the source give for CCOC(=O)C1=C[C@]2(CC)CCCN3CCc4c(n1c1ccccc41)[C@@H]32 [Apovincaminsäureäthylester, reference compound] here?
**A.** > 50 mg/kg

**Q.** What about the IC50 [4, 12] of the same compound?
**A.** 2 µg/mL (≈ 5.71 µM)

**Q.** What about the ED50 (Tiere [5]) of the same compound?
**A.** > 50 mg/kg

**Q.** What about the “Überlebensdauer (min)” value [6] of the same compound?
**A.** 6,4 ± 1,58 min

**Q.** What about the “Überlebensdauer (%) Verlängerung” value ([6]; 50 mg/kg intraperitoneal) of the same compound?
**A.** 7%

**Q.** For CCOC(=O)C1=C[C@]2(CC)CCCN3CCc4c(n1c1cccc(N)c41)[C@@H]32 [Beispiel 6, 9-(Amino)-apovincaminsäureäthylesterhydrochlorid], which “Überlebensdauer (min)” value [6] is on record?
**A.** 7,3 ± 2,31 min

**Q.** What about the “Schutz (%)” value ([6]; 50 mg/kg intraperitoneal, animals surviving more than twice the control time) of the same compound?
**A.** 10%

**Q.** And the “Überlebensdauer (%) Verlängerung” value ([6]; 50 mg/kg intraperitoneal)?
**A.** 22%

**Q.** For CCOC(=O)C1=C[C@]2(CC)CCCN3CCc4c(n1c1cccc(NS(C)(=O)=O)c41)[C@@H]32 [Beispiel 7, 9-(Methylsulfonylamino)-apovincaminsäureäthylesterhydrochlorid], which change in vivo at 1 mg/kg [7, 13] is on record?
**A.** 0%

**Q.** For CC[C@@]12C=C(C(=O)OC)n3c4c(c5ccc(NC(=O)c6ccc([N+](=O)[O-])cc6)cc53)CCN(CCC1)[C@H]42 [Beispiel 9, 11-[4'-(Nitro)-benzoylamino]-apovincamin], which ED50 (Tiere [3]) is on record?
**A.** 40.9 mg/kg

**Q.** What about the ED50 (Tiere [5]) of the same compound?
**A.** 42.1 mg/kg

**Q.** With CC[C@@]12C=C(C(=O)OC)n3c4c(c5ccc(NC(C)=O)cc53)CCN(CCC1)[C@H]42 [Beispiel 21, 11-(Acetamido)-apovincamin] as the compound, how does the change in vivo at 1 mg/kg [7, 14] read?
**A.** 0%

**Q.** Which IC50 [4, 12] does the source give for CC[C@@]12C=C(C(=O)OC)n3c4c(c5ccc(NC(=O)c6ccccc6F)cc53)CCN(CCC1)[C@H]42 [Beispiel 26, 11-[2'-(Fluor)-benzoylamino]-apovincamin] here?
**A.** 4 µg/mL (≈ 8.45 µM)

**Q.** For CC[C@@]12C=C(C(=O)OC)n3c4c(c5ccc(NC(=O)c6ccccc6)cc53)CCN(CCC1)[C@H]42 [Beispiel 28, 11-(Benzoylamino)-apovincamin], which ED50 (Tiere [3]) is on record?
**A.** 25 mg/kg

**Q.** What about the IC50 [4, 12] of the same compound?
**A.** 2.5 µg/mL (≈ 5.49 µM)

**Q.** What about the ED50 (Mäusen [8]) of the same compound?
**A.** 15.9 mg/kg

**Q.** What about the ED50 (Mäusen [9]) of the same compound?
**A.** 16 mg/kg

**Q.** What about the ED50 (Tiere [5]) of the same compound?
**A.** > 50 mg/kg

**Q.** Which change in vivo at 1 mg/kg [7, 14] does the source give for CCOC(=O)C1=C[C@]2(CC)CCCN3CCc4c(n1c1cc(NC(=O)c5cccs5)ccc41)[C@@H]32 [Beispiel 37, 11-(Thien-2'-ylcarbonylamino)-apovincaminsäureäthylesterhydrochlorid] here?
**A.** 0%

**Q.** Which TD50 (in vivo [10]) does the source give for CCOC(=O)C1=C[C@]2(CC)CCCN3CCc4c(n1c1cc(NC(=O)c5ccccc5)ccc41)[C@@H]32 [Beispiel 38, 11-(Benzoylamino)-apovincaminsäureäthylesterhydrochlorid] here?
**A.** > 180 mg/kg

**Q.** What about the TD50 (in vivo [11]) of the same compound?
**A.** > 180 mg/kg

**Q.** And the ED50 (Mäusen [8])?
**A.** 9.7 mg/kg

**Q.** What about the change in vivo at 1 mg/kg [7, 14] of the same compound?
**A.** 0%

**Q.** And the ED50 (Mäusen [9])?
**A.** 16.7 mg/kg

**Q.** For CC[C@@]12C=C(C(=O)OCC(C)C)n3c4c(c5ccc(NC(C)=O)cc53)CCN(CCC1)[C@H]42 [Beispiel 39, 11-(Acetamido)-apovincaminsäureisobutylesterhydrochlorid], which change in vivo at 1 mg/kg [7, 14] is on record?
**A.** 0%

**Q.** Which change in vivo at 1 mg/kg [7, 13] does the source give for CCOC(=O)C1=C[C@]2(CC)CCCN3CCc4c(n1c1cccc(NC(C)=O)c41)[C@@H]32 [Beispiel 40, 9-(Acetamido)-apovincaminsäureäthylesterhydrochlorid] here?
**A.** 0%

**Q.** With CCC1(c2ccccc2)NC(=O)N(C)C1=O (centres unmarked) [Mephenitoin, reference compound] as the compound, how does the ED50 (Tiere [3]) read?
**A.** > 80 mg/kg

**Q.** What about the TD50 (in vivo [10]) of the same compound?
**A.** 154 mg/kg

**Q.** What about the selectivity ratio (in vivo [11]; mouse) of the same compound?
**A.** 3 to 6

**Q.** And the TD50 (in vivo [11])?
**A.** 78.6 mg/kg

**Q.** What about the ED50 (Mäusen [8]) of the same compound?
**A.** 24.5 mg/kg

**Q.** And the ED50 (Mäusen [9])?
**A.** 26.3 mg/kg

**Q.** What about the ED50 (Tiere [5]) of the same compound?
**A.** > 80 mg/kg

**Q.** For COc1ccc(Cc2nccc3cc(OC)c(OC)cc23)cc1OC [Papaverin, reference compound], which IC50 ([4]; read-out: ED50) is on record?
**A.** 5.4 µg/mL (≈ 15.9 µM)

**Q.** With CC[C@]12CCCN3CCc4c(n(c5ccccc45)[C@@](O)(C(=O)OC)C1)[C@@H]32 [Vincamin] as the compound, how does the “Überlebensdauer (min)” value [6] read?
**A.** 6,1 ± 1,30 min

**Q.** What about the “Überlebensdauer (%) Verlängerung” value ([6]; 50 mg/kg intraperitoneal) of the same compound?
**A.** 2%
